Assays:
[1] = Kinetic inertness: acid-assisted decomplexation followed by HPLC; type: physicochemical; conditions: pH ~2.0, 40° C.; for Peak area of intact chelate: TFA 0.08%, UV 280 nm
Experimental: Stability (kinetic inertness) of the Gd(III) building block Gd-3 prepared in Example 4 was tested by following acid-assisted decomplexation by HPLC. Isocratic elution method was used for analysis. Constant concentration of TFA (0.08%) was maintained in the mobile phase (pH ˜2.0), while methanol content was varied to tune the retention time of the analyte. With increasing retention time (i.e. time spent in the acidic medium), more decomplexation should occur and the amount of intact chelate should decrease mono-exponentially (pseudo first-order reaction conditions), while a peak of free chelator should appear in the chromatogram. The HPLC conditions were as follows: column Kinetex C18, 100×3 mm, 2.6 um; column temperature maintained at 40° C.; mobile phase: TFA (constant 0.08% vol.), MeOH (variable), water; flow-rate 0.6 mL/min; UV detection at 280 nm; injection of 2 uL of 0.5 mM sample.

[2] = Relaxivity of Gd(III) chelates; type: physicochemical
Experimental: Relaxivity of Gd(III) chelate Gd-6 and of a peptide Gly-Phe-(Gd-6)-Gly-NH2 have been measured at 40° C. and 0.5 T in 10 mM MOPS buffer pH=7.0. It is apparent from the data that the relaxivity of the peptide, where the Gd-6 is incorporated within the peptide chain, is higher than the relaxivity of a standalone Gd-6.

Relaxivity r1 at 40° C., and 0.5 T ([2]; 10 mM MOPS buffer pH=7.0, calculated r1 = R1/c) | Relaxation time T1 ([2]; 40° C., 0.5 T, 10 mM MOPS buffer pH=7.0) | Substance | Peak area of intact chelate ([1]; 36% methanol in mobile phase, retention time 6.894 min) | Peak area of intact chelate ([1]; 37% methanol in mobile phase, retention time 6.072 min) | Peak area of intact chelate ([1]; 38% methanol in mobile phase, retention time 5.570 min) | Peak area of intact chelate ([1]; 39% methanol in mobile phase, retention time 5.044 min) | Peak area of intact chelate ([1]; 40% methanol in mobile phase, retention time 4.632 min) | Stability (kinetic inertness) under acidic conditions ([1]; with increasing retention time in TFA 0.08% mobile phase)
 |  | Gd(III) Complex of 2,2′,2″-(10-((2S,3S,4S)-1-(2-(9H-fluoren-9-yl)acetoxy)-2-carboxy-4-hydroxypyrrolidin-3-yl)-1,4,7,10-tetraazacyclododecane-1,4,7-triyl)triacetic acid [Gd-3] | 690.9 mAU · s | 686.6 mAU · s | 688.4 mAU · s | 685.5 mAU · s | 681.6 mAU · s | no decrease in the peak area
3.5 mM⁻¹ s⁻¹ | 1562 ms | Gd(III) Complex of 2,2′,2″-(10-((2S,3S,4S)-2-carboxy-4-hydroxypyrrolidin-3-yl)-1,4,7,10-tetraazacyclododecane-1,4,7-triyl)triacetic acid [Gd-6] |  |  |  |  |  | 

Reference: US12268757B2, “Cyclen based compounds, coordination compounds, peptides, pharmaceutical preparation, and use thereof” (USTAV ORGANICKE CHEMIE A BIOCHEMIE AV CR V.V.I., priority 2019, dated 2025)
